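96-well plates; 48 h exposure; 5 concentrations. Endpoints by linear interpolation between flanking doses. Not reached: highest tested concentration assigned. At the GI50, growth is halved.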 The source made the active and inactive calls. Rule as the data show it: active = GI50 up to about 1.1 µM and inactive = higher.
Assays:
Test in all cases: DTP human tumour cell line panel, 48 h
Malme-3M = tested on: Malme-3M
OVCAR-3 = tested on: OVCAR-3
IGROV-1 = tested on: IGROV-1
HT-29 = tested on: HT-29
ACHN = tested on: ACHN
SNB-75 = tested on: SNB-75
MDA-N = tested on: MDA-N
PC-3 = tested on: PC-3
MDA-MB-231 = tested on: MDA-MB-231
MDA-MB-435 = tested on: MDA-MB-435
SF-295 = tested on: SF-295
HCT-15 = tested on: HCT-15
T47D = tested on: T47D
SNB-19 = tested on: SNB-19
SF-539 = tested on: SF-539
A549 = tested on: A549
EKVX = tested on: EKVX
SW-620 = tested on: SW-620
SK-MEL-2 = tested on: SK-MEL-2
OVCAR-4 = tested on: OVCAR-4

| Compound | GI50 (Malme-3M) | GI50 (OVCAR-3) | GI50 (IGROV-1) | GI50 (HT-29) | GI50 (ACHN) | GI50 (SNB-75) | GI50 (MDA-N) | GI50 (PC-3) | GI50 (MDA-MB-231) | GI50 (MDA-MB-435) | GI50 (SF-295) | GI50 (HCT-15) | GI50 (T47D) | GI50 (SNB-19) | GI50 (SF-539) | GI50 (A549) | GI50 (EKVX) | GI50 (SW-620) | GI50 (SK-MEL-2) | GI50 (OVCAR-4) |
| --- | --- | --- | --- | --- | --- | --- | --- | --- | --- | --- | --- | --- | --- | --- | --- | --- | --- | --- | --- | --- |
| CN(C)CC/C=C1\c2ccccc2Sc2ccc(Cl)cc21 | 12.8 µM (inactive) | 13.4 µM (inactive) | 11.9 µM (inactive) | 4.19 µM (inactive) | 15.8 µM (inactive) | 12.3 µM (inactive) | 12.7 µM (inactive) | 12.8 µM (inactive) | 13.6 µM (inactive) | 10.3 µM (inactive) | 15.9 µM (inactive) | 15.4 µM | 16.3 µM (inactive) | 15.5 µM (inactive) | 19 µM (inactive) | 14.6 µM (inactive) | 10.1 µM (inactive) | 16.3 µM (inactive) | 16.1 µM (inactive) | 12.6 µM (inactive) |
| CCOP(=O)(OCC)C(C)(C)OC(=O)NC(F)(F)F | > 100 µM (inactive) | > 100 µM (inactive) | > 100 µM (inactive) | > 100 µM (inactive) | > 100 µM (inactive) | > 100 µM (inactive) | > 100 µM (inactive) | > 100 µM (inactive) | > 100 µM (inactive) | > 100 µM (inactive) | > 100 µM (inactive) | > 100 µM | > 100 µM (inactive) | > 100 µM (inactive) | > 100 µM (inactive) | > 100 µM (inactive) | > 100 µM (inactive) | > 100 µM (inactive) | > 100 µM (inactive) | > 100 µM (inactive) |
| CCn1c2ccccc2c2ccc(C3C4C(=O)N(c5cccc6ccccc56)C(=O)C4ON3C(C(N)=O)c3ccccc3)cc21 (stereo not given) | > 25 µM (inactive) | 13.7 µM (inactive) | 13.4 µM (inactive) | 8.24 µM (inactive) | > 25 µM (inactive) | > 25 µM (inactive) | 9.1 µM (inactive) | 14.2 µM (inactive) | > 25 µM (inactive) | 10.2 µM (inactive) | > 25 µM (inactive) | 13.3 µM | 17.9 µM (inactive) | > 25 µM (inactive) | 7.59 µM (inactive) | > 25 µM (inactive) | 12.9 µM (inactive) | 12.8 µM (inactive) | 12.4 µM (inactive) | 14.6 µM (inactive) |
| O=C1CSC(c2cccs2)N1c1nc2cc3sc(N4C(=O)CSC4c4cccs4)nc3cc2s1 (stereo not given) | > 50 µM (inactive) | > 50 µM (inactive) | 32.3 µM (inactive) | 11.9 µM (inactive) | > 50 µM (inactive) | > 50 µM (inactive) | > 50 µM (inactive) | 47.9 µM (inactive) | > 50 µM (inactive) | > 50 µM (inactive) | > 50 µM (inactive) | 33.4 µM | > 50 µM (inactive) | > 50 µM (inactive) | 0.753 µM (active) | 4.23 µM (inactive) | 16 µM (inactive) | 16.2 µM (inactive) | > 50 µM (inactive) | > 50 µM (inactive) |
| O=C(Nc1cccc(-c2cn3ccccc3n2)c1)c1ccncc1 | 29.3 µM (inactive) | 35.1 µM (inactive) | 40.9 µM (inactive) | 35.8 µM (inactive) | 41.1 µM (inactive) | 46.1 µM (inactive) | 31.3 µM (inactive) | 35.9 µM (inactive) | 32 µM (inactive) | 31.9 µM (inactive) | 40.7 µM (inactive) | 24.2 µM | 19.2 µM (inactive) | 99.3 µM (inactive) | 50.6 µM (inactive) | 44.9 µM (inactive) | 60.1 µM (inactive) | 64.9 µM (inactive) | 22.6 µM (inactive) | 34.7 µM (inactive) |
| CN1C(=O)C(O)C[C@@H]1c1ccccc1 (stereo not given in full) | > 100 µM (inactive) | > 100 µM (inactive) | > 100 µM (inactive) | > 100 µM (inactive) | > 100 µM (inactive) | > 100 µM (inactive) | > 100 µM (inactive) | > 100 µM (inactive) | > 100 µM (inactive) | > 100 µM (inactive) | > 100 µM (inactive) | > 100 µM | > 100 µM (inactive) | > 100 µM (inactive) | > 100 µM (inactive) | > 100 µM (inactive) | > 100 µM (inactive) | > 100 µM (inactive) | > 100 µM (inactive) | > 100 µM (inactive) |
| O=c1nc(N2CCNCC2)oc2cc(Cl)oc(=O)c12 | 3.93 µM (inactive) | 4.06 µM (inactive) | 2.7 µM (inactive) | 3.91 µM (inactive) | 6.87 µM (inactive) | 3.7 µM (inactive) | 2.2 µM (inactive) | 6.49 µM (inactive) | 12.1 µM (inactive) | 4.44 µM (inactive) | 7.13 µM (inactive) | 3.25 µM | 2.79 µM (inactive) | 15.4 µM (inactive) | 2.25 µM (inactive) | 7.52 µM (inactive) | 6.28 µM (inactive) | 2.26 µM (inactive) | 8.49 µM (inactive) | 5.45 µM (inactive) |
| Cc1ccccc1OC(C)C(=O)NN1C(=O)CC(=O)NC1=S (stereo not given) | > 100 µM (inactive) | > 100 µM (inactive) | > 100 µM (inactive) | > 100 µM (inactive) | 84.5 µM (inactive) | > 100 µM (inactive) | > 100 µM (inactive) | > 100 µM (inactive) | > 100 µM (inactive) | > 100 µM (inactive) | 86.7 µM (inactive) | > 100 µM | 23.9 µM (inactive) | > 100 µM (inactive) | > 100 µM (inactive) | 68.9 µM (inactive) | > 100 µM (inactive) | > 100 µM (inactive) | > 100 µM (inactive) | 63.2 µM (inactive) |
| CCOC(=O)c1nc2ccc(C(F)(F)F)cc2nc1NCc1ccc(F)cc1 | 35.5 µM (inactive) | 50.2 µM (inactive) | 26.5 µM (inactive) | 35.4 µM (inactive) | 31.6 µM (inactive) | 91.4 µM (inactive) | 25.4 µM (inactive) | 29.4 µM (inactive) | 32.1 µM (inactive) | 31.9 µM (inactive) | 75.5 µM (inactive) | 29.4 µM | 17.1 µM (inactive) | 32.6 µM (inactive) | 80 µM (inactive) | 42.8 µM (inactive) | 37.8 µM (inactive) | 34.1 µM (inactive) | 59.4 µM (inactive) | 12 µM (inactive) |
| CCOc1ccc(/C=C2\N=C(c3ccc([N+](=O)[O-])cc3)OC2=O)cc1 | > 100 µM (inactive) | > 100 µM (inactive) | > 100 µM (inactive) | > 100 µM (inactive) | > 100 µM (inactive) | > 100 µM (inactive) | > 100 µM (inactive) | > 100 µM (inactive) | > 100 µM (inactive) | > 100 µM (inactive) | > 100 µM (inactive) | > 100 µM | > 100 µM (inactive) | > 100 µM (inactive) | > 100 µM (inactive) | > 100 µM (inactive) | > 100 µM (inactive) | > 100 µM (inactive) | > 100 µM (inactive) | > 100 µM (inactive) |
| CCOC(=O)C1(C(=O)OCC)OC(C)=NC1(C(=O)OC)C(=O)OC | > 100 µM (inactive) | > 75.3 µM (inactive) | > 100 µM (inactive) | > 100 µM (inactive) | > 100 µM (inactive) | > 32.5 µM (inactive) | > 100 µM (inactive) | > 100 µM (inactive) | > 100 µM (inactive) | > 100 µM (inactive) | > 100 µM (inactive) | > 100 µM | > 100 µM (inactive) | > 100 µM (inactive) | > 100 µM (inactive) | > 100 µM (inactive) | > 26.2 µM (inactive) | > 100 µM (inactive) | > 100 µM (inactive) | > 100 µM (inactive) |
| O=C(CSc1nc2ccc(I)cc2c(=O)n1Cc1ccccc1)Nc1ccccc1 | 6.15 µM (inactive) | 10.8 µM (inactive) | 25.2 µM (inactive) | > 100 µM (inactive) | 26 µM (inactive) | 2.94 µM (inactive) | > 100 µM (inactive) | 11.4 µM (inactive) | 16.5 µM (inactive) | > 100 µM (inactive) | 14.9 µM (inactive) | 41.5 µM | 21.2 µM (inactive) | 17.5 µM (inactive) | 3.08 µM (inactive) | 26.6 µM (inactive) | 3.55 µM (inactive) | 92.7 µM (inactive) | 13.8 µM (inactive) | 14.3 µM (inactive) |
| Brc1ccc2c(-c3csc(-c4c[nH]c5ccc(Br)cc45)n3)c[nH]c2c1 | 5.4 µM (inactive) | 6 µM (inactive) | 2.43 µM (inactive) | 1.76 µM (inactive) | 2.96 µM (inactive) | 10.2 µM (inactive) | 5.15 µM (inactive) | 4.81 µM (inactive) | 3.42 µM (inactive) | 4.46 µM (inactive) | 3.19 µM (inactive) | 3.38 µM | 2.94 µM (inactive) | 4.09 µM (inactive) | 3.87 µM (inactive) | 4.2 µM (inactive) | 1.27 µM (inactive) | 3.65 µM (inactive) | 5.35 µM (inactive) | 6.9 µM (inactive) |
| O=C(/C=C/c1ccc(O)cc1)c1cc(-c2cc(CCC(=O)c3ccc(O)cc3O)ccc2O)c(O)cc1O | 24.9 µM (inactive) | 14.1 µM (inactive) | 16.2 µM (inactive) | 14.4 µM (inactive) | > 50 µM (inactive) | 19.3 µM (inactive) | 19.1 µM (inactive) | 22.6 µM (inactive) | 37.8 µM (inactive) | 17 µM (inactive) | 22.3 µM (inactive) | > 50 µM | 30.6 µM (inactive) | 26.8 µM (inactive) | 10.8 µM (inactive) | > 50 µM (inactive) | > 50 µM (inactive) | 29.9 µM (inactive) | 33.7 µM (inactive) | 19.7 µM (inactive) |

From ChEMBL document CHEMBL1201862, “PubChem BioAssay data set” (2004)
